Data on 34 compounds can be found in US10428044B2, “3-amino-1,5,6,7-tetrahydro-4H-indol-4-ones” (Bayer Pharma Aktiengesellschaft, priority 2014, dated 2019).

As usually defined, the IC50 is the concentration at which inhibition is half-maximal.

Chain of (recombinant) catalytic domain of human Bub1 (amino acids 704-1085) (O43683 704-1085): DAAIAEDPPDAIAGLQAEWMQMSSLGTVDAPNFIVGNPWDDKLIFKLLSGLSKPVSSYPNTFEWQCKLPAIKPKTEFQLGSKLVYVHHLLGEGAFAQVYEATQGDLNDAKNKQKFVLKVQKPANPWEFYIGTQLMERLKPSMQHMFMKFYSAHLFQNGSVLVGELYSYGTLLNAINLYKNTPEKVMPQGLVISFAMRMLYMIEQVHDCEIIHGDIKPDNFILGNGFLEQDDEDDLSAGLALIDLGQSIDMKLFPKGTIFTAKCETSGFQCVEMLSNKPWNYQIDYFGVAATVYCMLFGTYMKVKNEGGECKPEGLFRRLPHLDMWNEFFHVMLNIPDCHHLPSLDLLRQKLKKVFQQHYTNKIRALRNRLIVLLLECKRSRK

The target of the assay is (recombinant) catalytic domain of human Bub1 (amino acids 704-1085) (Homo sapiens (Human), UniProt O43683). Put plainly: Bub1 kinase assay (TR-FRET). Type of assay: biochemical. To be noted: ATP 10 μM final, peptide substrate 1 μM final, 60 min at 22° C., read-out: Biological Assay: Bub1 kinase assay median IC50. In outline:
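Readout was TR-FRET between a Eu-labeled antibody complex recognizing phosphoserine and streptavidin-XL665 on the biotinylated peptide, after EDTA stop and 1 h at 22° C. The kinase reaction ran for 60 min at 22° C. Values are means or medians of repeat tests, from 4-parameter fits normalized to enzyme-free and inhibitor-free controls.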
With `CSc1cc(-c2[nH]c3c(c2Nc2ccccc2)C(=O)CC(C)(C)C3)ccn1` [Example 200, 6,6-dimethyl-2-[2-(methylsulfanyl)pyridin-4-yl]-3-(phenylamino)-1,5,6,7-tetrahydro-4H-indol-4-one], the IC50 is 610 nM.
Take `O=C(Nc1cc(-c2[nH]c3c(c2Nc2ccccc2)C(=O)CCC3)ccn1)NC1CC1` [Example 379, 1-cyclopropyl-3-{4-[4-oxo-3-(phenylamino)-4,5,6,7-tetrahydro-1H-indol-2-yl]pyridin-2-yl}urea]: the IC50 came to 36.6 nM.
For the compound `O=C1CCCc2[nH]c(-c3c(F)cncc3F)c(Nc3cccc(F)c3)c21` [Example 136, 2-(3,5-difluoropyridin-4-yl)-3-[(3-fluorophenyl)amino]-1,5,6,7-tetrahydro-4H-indol-4-one], the IC50 is 924 nM.
Turning to `CC(=O)N(C(C)=O)c1cc(-c2[nH]c3c(c2Nc2ccccc2)C(=O)CC(C)(C)C3)ccn1` [Example 133, N-acetyl-N-{4-[6,6-dimethyl-4-oxo-3-(phenylamino)-4,5,6,7-tetrahydro-1H-indol-2 yl]pyridin-2-yl}acetamide], the IC50 is 49.2 nM.
Regarding `CC1(C)CC(=O)c2c([nH]c(-c3ccnc4[nH]cnc34)c2Nc2ccccc2)C1` [Example 221, 2-(3H-imidazo[4,5-b]pyridin-7-yl)-6,6-dimethyl-3-(phenylamino)-1,5,6,7-tetrahydro-4H-indol-4-one], the IC50 came out at 13.1 nM.
As to `CC(C)[n+]1ccc(-c2[nH]c3c(c2Nc2ccccc2)C(=O)CC(C)(C)C3)cc1` [Example 189, 4-[6,6-dimethyl-4-oxo-3-(phenylamino)-4,5,6,7-tetrahydro-1H-indol-2-yl]-1-(propan-2-yl)pyridinium iodide], the IC50 was 259 nM.
As for `CC(C)Oc1cnccc1-c1[nH]c2c(c1Nc1ccccc1)C(=O)CC(C)(C)C2` [Example 406, 6,6-dimethyl-3-(phenylamino)-2-[3-(propan-2-yloxy)pyridin-4-yl]-1,5,6,7-tetrahydro-4H-indol-4-one], the 50% inhibitory concentration (IC50) turned out to be 53.7 nM.
As for `CC1(C)CC(=O)c2c([nH]c(-c3ccnc(NC(=O)c4ccn[nH]4)c3)c2Nc2ccccc2)C1` [Example 465, N-{4-[6,6-dimethyl-4-oxo-3-(phenylamino)-4,5,6,7-tetrahydro-1H-indol-2-yl]pyridin-2-yl}-1H-pyrazole-3-carboxamide], the IC50 was determined as 7.19 nM.
As for `CC(C)(C)NC(=O)Nc1cc(-c2[nH]c3c(c2Nc2ccccc2)C(=O)CCC3)ccn1` [Example 380, 1-tert-butyl-3-{4-[4-oxo-3-(phenylamino)-4,5,6,7-tetrahydro-1H-indol-2-yl]pyridin-2-yl}urea], the figure is 437 nM.
Regarding `CCn1c2c(c(Nc3ccccc3)c1-c1ccncc1)C(=O)CCC2` [Example 170, 1-ethyl-3-(phenylamino)-2-(pyridin-4-yl)-1,5,6,7-tetrahydro-4H-indol-4-one], the IC50 was 40.2 nM.
For `O=C1CCCc2[nH]c(-c3ccnc(Nc4cccc(F)c4)c3)c(Nc3ccccc3)c21` [Example 375, 2-{2-[(3-fluorophenyl)amino]pyridin-4-yl}-3-(phenylamino)-1,5,6,7-tetrahydro-4H-indol-4-one], the IC50 is 330 nM.
As for `Cn1ccnc1CC(=O)Nc1cc(-c2[nH]c3c(c2Nc2ccccc2)C(=O)CCC3)ccn1` [Example 463, N-[4-(3-anilino-4-oxo-4,5,6,7-tetrahydro-1H-indol-2-yl)pyridin-2-yl]-2-(1-methyl-1H-imidazol-2-yl)acetamide], the IC50 was determined as 142 nM.
For `O=C1CCCc2[nH]c(-c3ccnc(NC[C@H](O)CO)c3)c(Nc3ccccc3)c21` [Example 371, 2 2-(2-{[(2S)-2,3-dihydroxypropyl]amino}pyridin-4-yl)-3-(phenylamino)-1,5,6,7-tetrahydro-4H-indol-4-one] the value was 1010 nM.
As for `O=C1CCCc2[nH]c(-c3ccnc(NCCCCc4ccccc4)c3)c(Nc3ccccc3)c21` [Example 484, 3-(phenylamino)-2-{2-[(4-phenylbutyl)amino]pyridin-4-yl}-1,5,6,7-tetrahydro-4H-indol-4-one], the figure is 907 nM; as for `Cc1cnccc1-c1[nH]c2c(c1Nc1ccccc1)C(=O)CC(C)(C)C2` [Example 131, 6,6-dimethyl-2-(3-methylpyridin-4-yl)-3-(phenylamino)-1,5,6,7-tetrahydro-4H-indol-4-one], 51.8 nM.
Consider `C#Cc1cccc(Nc2c(-c3ccncc3)[nH]c3c2C(=O)CC(C)(C)C3)c1` [Example 428, 3-[(3-ethynylphenyl)amino]-6,6-dimethyl-2-(pyridin-4-yl)-1,5,6,7-tetrahydro-4H-indol-4-one], for which the concentration for half-maximal inhibition (IC50) came to 509 nM.
As to `CC(C)(CF)C(=O)Nc1cc(-c2[nH]c3c(c2Nc2ccccc2)C(=O)CCC3)ccn1` [Example 263, 3-fluoro-2,2-dimethyl-N-{4-[4-oxo-3-(phenylamino)-4,5,6,7-tetrahydro-1H-indol-2-yl]pyridin-2-yl}propanamide], the IC50 is 140 nM.
With `CC(C(=O)Nc1cc(-c2[nH]c3c(c2Nc2ccccc2)C(=O)CCC3)ccn1)C(F)(F)F` (stereo not shown) [Example 247, 3,3,3-trifluoro-2-methyl-N-{4-[4-oxo-3-(phenylamino)-4,5,6,7-tetrahydro-1H-indol-2-yl]pyridin-2-yl}propanamide], the IC50 came to 81.3 nM.
Regarding `O=C1CCCc2[nH]c(-c3ccnc(NCc4ccc(F)cc4)c3)c(Nc3ccccc3)c21` [Example 499, 2-{2-[(4-fluorobenzyl)amino]pyridin-4-yl}-3-(phenylamino)-1,5,6,7-tetrahydro-4H-indol-4-one], the IC50 turned out to be 830 nM.
For `CC1(C)CC(=O)c2c([nH]c(-c3ccnc(NC(=O)c4cscn4)c3)c2Nc2ccccc2)C1` [Example 272, N-{4-[6,6-dimethyl-4-oxo-3-(phenylamino)-4,5,6,7-tetrahydro-1H-indol-2-yl]pyridin-2-yl}-1,3-thiazole-4-carboxamide] the value was 6.63 nM; for `CCC(=O)Nc1cc(-c2[nH]c3c(c2Nc2ccccc2)C(=O)CCC3)ccn1` [Example 225, N-{4-[4-oxo-3-(phenylamino)-4,5,6,7-tetrahydro-1H-indol-2-yl]pyridin-2-yl}propanamide], 26.7 nM; for `CC1(C)CC(=O)c2c([nH]c(-c3ccncn3)c2Nc2ccccc2)C1` [Example 5, 6,6-dimethyl-3-(phenylamino)-2-(pyrimidin-4-yl)-1,5,6,7-tetrahydro-4H-indol-4-one], 25.2 nM.
Take `O=C(Nc1cc(-c2[nH]c3c(c2Nc2ccccc2)C(=O)CCC3)ccn1)c1cncs1` [Example 273, N-{4-[4-oxo-3-(phenylamino)-4,5,6,7-tetrahydro-1H-indol-2-yl]pyridin-2-yl}-1,3-thiazole-5-carboxamide]: the IC50 is 7.66 nM.
As for `O=C(COc1ccsc1)Nc1cc(-c2[nH]c3c(c2Nc2ccccc2)C(=O)CCC3)ccn1` [Example 344, N-{4-[4-oxo-3-(phenylamino)-4,5,6,7-tetrahydro-1H-indol-2-yl]pyridin-2-yl}-2-(thiophen-3-yloxy)acetamide], the figure is 19.8 nM.
For `CCCn1c2c(c(Nc3ccccc3)c1-c1ccncc1)C(=O)CCC2` [Example 171, 3-(phenylamino)-1-propyl-2-(pyridin-4-yl)-1,5,6,7-tetrahydro-4H-indol-4-one] the value was 14.4 nM.
In the case of `Cn1c2c(c(Nc3ccccc3)c1-c1ccncc1)C(=O)CC(C)(C)C2` [Example 179, 1,6,6-trimethyl-3-(phenylamino)-2-(pyridin-4-yl)-1,5,6,7-tetrahydro-4H-indol-4-one], the IC50 turned out to be 162 nM.
Regarding `O=C(CN1CCCC1)Nc1cc(-c2[nH]c3c(c2Nc2ccccc2)C(=O)CCC3)ccn1` [Example 308, N-{4-[4-oxo-3-(phenylamino)-4,5,6,7-tetrahydro-1H-indol-2-yl]pyridin-2-yl}-2-(pyrrolidin-1-yl)acetamide], the IC50 amounted to 234 nM.
Regarding `Cc1cccc(Nc2c(-c3ccncc3)[nH]c3c2C(=O)CC(C)(C)C3)c1` [Example 3, 6,6-dimethyl-3-[(3-methylphenyl)amino]-2-(pyridin-4-yl)-1,5,6,7-tetrahydro-4H-indol-4-one], the IC50 was found to be 37.8 nM.
As for `O=C(COc1ccccc1)Nc1cc(-c2[nH]c3c(c2Nc2ccccc2)C(=O)CCC3)ccn1` [Example 337, N-{4-[4-oxo-3-(phenylamino)-4,5,6,7-tetrahydro-1H-indol-2-yl]pyridin-2-yl}-2-phenoxyacetamide], the figure is 22.9 nM.
As for `C[S+]([O-])c1cnccc1-c1[nH]c2c(c1Nc1ccccc1)C(=O)CC(C)(C)C2` (stereo not shown) [Example 202, {4-[6,6-dimethyl-4-oxo-3-(phenylamino)-4,5,6,7-tetrahydro-1H-indol-2-yl]pyridin-3-yl}(methyl)sulfoniumolate], the figure is 1990 nM; as for `CC1(C)CC(=O)c2c(Nc3ccccc3)c(-c3ccncc3)n(CCO)c2C1` [Example 184, 1-(2-hydroxyethyl)-6,6-dimethyl-3-(phenylamino)-2-(pyridin-4-yl)-1,5,6,7-tetrahydro-4H-indol-4-one], 200 nM; as for `Cc1nnc(COCC(=O)Nc2cc(-c3[nH]c4c(c3Nc3ccccc3)C(=O)CCC4)ccn2)o1` [Example 353, 2-[(5-methyl-1,3,4-oxadiazol-2-yl)methoxy]-N-{4-[4-oxo-3-(phenylamino)-4,5,6,7-tetrahydro-1H-indol-2-yl]pyridin-2-yl}acetamide], 14.4 nM.
As for `O=C(Nc1cc(-c2[nH]c3c(c2Nc2ccccc2)C(=O)CCC3)ccn1)c1cnco1` [Example 282, N-{4-[4-oxo-3-(phenylamino)-4,5,6,7-tetrahydro-1H-indol-2-yl]pyridin-2-yl}-1,3-oxazole-5-carboxamide], the figure is 9.72 nM.
As for `O=C1CCCc2[nH]c(-c3ccnc(F)c3)c(Nc3ccccc3)c21` [Example 44, 2-(2-fluoropyridin-4-yl)-3-(phenylamino)-1,5,6,7-tetrahydro-4H-indol-4-one], the IC50 amounted to 17 nM.
